The results in this text go back to patent US20140186329A1, “POLYPHENOL ANALOGS TO TREAT ISCHEMIA” (priority 2011, published 2014).

Assay [1] concerns HT22 cells. As to the kind of experiment: In vitro ischemia assay (HT22 cell IAA assay, MTT). Format: cell-based, mouse. To be noted: for percent protection from IAA-induced cell death at 0.1 µM / Emax: HT-22; for percent protection from IAA-induced cell death at 0.1 µM: compound 100 nM; for Emax: HT22 Cell IAA assay, read-out: Max Protection; for increase of survival over the neuroprotective concentration range / neuroprotective concentration range: 20 μM IAA 2 hr, MTT at 24 hours. The gist of the method:
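Mouse HT22 hippocampal cells in DMEM/7.5% DFCS exposed 2 hr to 20 μM iodoacetic acid with or without derivative, then 20 hr in IAA-free medium still containing derivative. Viability by MTT (2.5 μg/ml, 4 hr, 37 °C), absorbance at 570 nm.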

Assay [2] has as its system primary mouse cortical neurons. Kind of assay: Primary cortical cell glutamate excitotoxicity assay. The settings on record: for Primary Cortical Cell assay-Glutamate (% protection @ 100 nM) / % protection against glutamate excitotoxicity at 0.1 µM: 10 μM glutamate, compound 100 nM; for % protection against glutamate excitotoxicity at 0.1 µM: Mus musculus, Cortical neurone. Format: cell-based. Here is the method: FIG. 5 illustrates pharmacological effects of Baicalein on cultured cells. (A) Trophic factor withdrawal. Primary cortical neurons are prepared from 18-day-old rat embryos, and cultured at low cell density 1×10^6/35 mm dish, in serum containing medium with Baicalein (10-10,000 nM), and viability assayed 2 days later using a live-dead assay. (B) Excitotoxicity assay was done with E14 mouse primary cortical neuron cultures. After 11 days of culture, cells were exposed to 10 μM glutamate for 10 min, followed by the addition of varying concentrations of Baicalein (0.2-5 μM). Cell viability was determined 24 hr later with a standard MTT assay. (C) PC12 cells were glucose-deprived then were incubates in the absence or presence of Baicalein. Cell viability was determined 24 hr later using the MTT assay. (D) RCG-5 nerve cells were treated with 30 μM iodoacetic acid for 2 hr in the presence or absence of 5-25 μM Baicalein. In some experiments, Baicalein was added 2 hr after the ischemic event. Cell survival (%) was measured after 24 hr by the MTT assay. Baicalein added before (□) or 2 hr after ([…]) ischemia.
Primary cultures of cortical neurons that die due to excitotoxicity were prepared as described previously. Briefly, BALB/c mouse embryo cortices were minced and treated with 0.1% trypsin for 20 min. After centrifugation, the cells are resuspended in 827 Neurobasal medium (Invitrogen) plus 10% fetal calf serum and are dissociated by repeated pipetting through a 1 mL blue Eppendorf pipette tip. Then the cells are plated at 1×10^5 cells per well in 96-well poly-L-lysine and laminin-coated microtiter plates (Becton Dickinson, Bedford, Mass., USA) in 827 Neurobasal plus 10% fetal calf serum and 20% glial growth-conditioned medium. Two days later the medium is aspirated and replaced by serum-free 827 Neurobasal medium plus 10 μg/mL cytosine arabinoside. The cultures are used without media change 11 days after plating and are essentially free of astrocytes. They are exposed to 10 μM glutamate followed by varying concentrations of the compounds. Cell viability is determined 24 h later using the fluorescent live/dead assay. Glial conditioned medium is prepared from confluent rat astrocyte cultures. The cells are washed twice with serum-free medium and incubated for 2 days in serum-free Neurobasal medium to produce the growth conditioned medium.
(1) ≧80% cell survival in mouse HT22 hippocampal cells in the presence of 20 μM iodoacetic acid (IAA) (in vitro ischemia model). See, Maher, et al., Brain Res. 2007, 1173:117-25. (2) ≧35% cell survival in primary mouse cortical neurons in the presence of 10 μM glutamate (in vitro excitotoxicity assay). See, Ishige, et al., Free Radic Biol Med, 2001, 30(4): p. 433-46.

Setting [3] is: Mus musculus, HT-22, HT22 cells, 20 μM IAA for 2 hr, viability after 24 hr by MTT, read-out: EC50 in vitro ischemia.
[4] abbreviates: Mus musculus, HT-22, HT22 cells, 20 μM IAA, read-out: HT22 Cell IAA assay EC50.
Where [5] appears, read: HT22 cells, 20 μM IAA, read-out: HT22 Cell IAA assay EC50.

Like-named read-outs stand apart in the source and are kept apart here.

For the molecule `O=c1c(O)c(-c2ccc(O)c(O)c2)oc2ccccc12` [CMS-04P, reference compound], the EC50 in assay [1] (setting [3]) and in assay [1] (setting [4]) was 500 nM in each case. The “fold improvement of neuroprotective activity/potency relative to Fisetin” value in assay [1] (in vitro ischemia, HT22/IAA) is listed as approximately 6 fold.
For the molecule `COc1cc(-c2oc3cc(C)c(C)cc3c(=O)c2O)ccc1O` [CMS-069, 3-hydroxy-2-(4-hydroxy-3-methoxyphenyl)-6,7-dimethyl-4H-chromen-4-one], the EC50 in assay [1] (setting [5]) was 36 nM; in assay [1] (setting [3]) it was 40 nM; in assay [1] (setting [4]), less than 40 nM. The percent protection from IAA-induced cell death at 0.1 µM in assay [1] (Mus musculus, 20 μM IAA) turned out to be 67%. In addition, in assay [2], the “Primary Cortical Cell assay-Glutamate (% protection @ 100 nM)” value was determined as 86%.
As to `CCOc1cc(-c2ccc(O)c(O)c2)nc2ccccc12` [CMS-023, 4-ethoxy-2-(3,4-dihydroxyphenyl) quinoline], the concentration for a half-maximal effect (EC50) in assay [1] (setting [3]) turned out to be 20 nM. For the same molecule, the EC50 in assay [1] (setting [4]) was 21 nM. In addition, the percent protection from IAA-induced cell death at 0.1 µM in assay [1] (Mus musculus, 20 μM IAA) turned out to be 72%. Moreover, in assay [1] (in vitro ischemia, HT22/IAA), the “fold improvement of neuroprotective activity relative to CMS-007” value is approximately 2 fold and the “fold improvement of neuroprotective activity/potency relative to Fisetin” value was approximately 140 fold. For the same molecule, the “Primary Cortical Cell assay-Glutamate (% protection @ 100 nM)” value in assay [2] was found to be 100%.
Regarding `COc1cc(-c2ccc(O)c(O)c2)nc2ccccc12` [CMS-007, 4-methoxy-2-(3,4-dihydroxyphenyl) quinoline], in assay [1] (setting [3]), the EC50 was 40 nM. Also, in assay [1] (Mus musculus, 20 μM IAA), the percent protection from IAA-induced cell death at 0.1 µM turned out to be 71%. Moreover, the “fold improvement of neuroprotective activity/potency relative to Fisetin” value in assay [1] (in vitro ischemia, HT22/IAA) is recorded as approximately 75 fold.
As for `Oc1ccc(-c2cc(OC3CCCC3)c3ccccc3n2)cc1O` [CMS-121, 4-cyclopentyloxy-2-(3,4-dihydroxyphenyl) quinoline], the EC50 in assay [1] (setting [3]) was 7 nM. Besides, in assay [1] (Mus musculus), the Emax was found to be 86%. In addition, in assay [1] (in vitro ischemia, HT22/IAA), the “fold improvement of neuroprotective activity/potency relative to Fisetin” value is more than 400 fold.
With `CN(C)c1ccc(-c2oc3c(ccc4ccccc43)c(=O)c2O)cc1` [CMS-118, 2-(4-(dimethylamino)phenyl)-3-hydroxy-4H-benzo[h]chromen-4-one], the EC50 in assay [1] (setting [3]) came to 40 nM. Moreover, the Emax in assay [1] (Mus musculus) was found to be 82%.
Turning to `Cc1cc2oc(-c3ccc(N4CCCC4)cc3)c(O)c(=O)c2cc1C` [CMS-122, 3-hydroxy-6,7-dimethyl-2-(4-(pyrrolidin-1-yl)phenyl)-4H-chromen-4-one], the EC50 in assay [1] (setting [3]) is 90 nM.
Consider `COc1cc(-c2oc3cc(C)c(C)cc3c(=O)c2O)ccc1OCc1ccccc1` [CMS-059, 2-(4-(benzyloxy)-3-methoxyphenyl)-3-hydroxy-6,7-dimethyl-4H-chromen-4-one], for which the EC50 in assay [1] (setting [3]) worked out at 170 nM; in assay [1] (setting [4]), 167 nM. The percent protection from IAA-induced cell death at 0.1 µM in assay [1] (Mus musculus, 20 μM IAA) stood at 49%. The % protection against glutamate excitotoxicity at 0.1 µM in assay [2] was 78%.
Take `O=C(/C=C/c1ccc(O)c(O)c1)c1ccc2ccccc2c1O` [CMS-034, (E)-3-(3,4-dihydroxyphenyl)-1-(1-hydroxynaphthalen-2-yl)prop-2-en-1-one]: the EC50 in assay [1] (setting [5]) was 79 nM; in assay [1] (setting [3]), 80 nM; in assay [1] (setting [4]), not above 100 nM. In assay [1] (Mus musculus, 20 μM IAA), the percent protection from IAA-induced cell death at 0.1 µM stood at 63%. In assay [1] (Mus musculus), the Emax is 81%.
Regarding `CC(C)Oc1cc(-c2ccc(O)c(O)c2)nc2ccccc12` [CMS-024, 4-isopropoxy-2-(3,4-dihydroxyphenyl) quinoline], the EC50 in assay [1] (setting [3]) stood at 20 nM; in assay [1] (setting [4]) it was 21 nM. In addition, the percent protection from IAA-induced cell death at 0.1 µM in assay [1] (Mus musculus, 20 μM IAA) worked out at 72%. The “fold improvement of neuroprotective activity relative to CMS-007” value in assay [1] (in vitro ischemia, HT22/IAA) was approximately 2 fold. Moreover, the “Primary Cortical Cell assay-Glutamate (% protection @ 100 nM)” value in assay [2] is recorded as 58%.
In the case of `O=C(/C=C/c1ccc(O)c(O)c1)O[C@@H]1C[C@](O)(C(=O)O)C[C@@H](O)[C@H]1O` [Chlorogenic Acid, 1,3,4,5-tetrahydroxy-cyclohexanecarboxylic acid 3-(3,4-dihydroxycinnamate)], the “HT22 Cell IAA assay (maximal % protection)” value in assay [1] (20 μM IAA) came to 45%. The EC50 in assay [1] (setting [4]) amounted to 5000 nM. The molecule further had a % protection against glutamate excitotoxicity at 0.1 µM in assay [2] of 0%.
As for `Cc1cc(O)c(C(=O)/C=C/c2ccc(O)c(O)c2)cc1C` [CMS-011, (E)-3-(3,4-dihydroxyphenyl)-1-(2-hydroxy-4,5-dimethylphenyl)prop-2-en-1-one], the EC50 in assay [1] (setting [5]) is 53 nM; in assay [1] (setting [3]) it was 50 nM; in assay [1] (setting [4]), 50 nM. Moreover, the percent protection from IAA-induced cell death at 0.1 µM in assay [1] (Mus musculus, 20 μM IAA) amounted to 62%.
As for `O=c1c(O)c(-c2ccc(O)c(O)c2)oc2cc(O)ccc12` [Fisetin, 3,7,3′,4′-Tetrahydroxyflavone, reference compound], the “HT22 Cell IAA assay (maximal % protection)” value in assay [1] (20 μM IAA) stood at 90%. For the same molecule, the “increase of survival over the neuroprotective concentration range” value in assay [1] (HT22 cells) is “greater than 85%”. Moreover, in assay [1] (HT22 cells), the neuroprotective concentration range is 5 to 25 µM. The EC50 in assay [1] (setting [3]) and in assay [1] (setting [4]) was 3000 nM in each case. Moreover, the “Primary Cortical Cell assay-Glutamate (% protection @ 100 nM)” value in assay [2] is on record as 0%.
For the molecule `Cc1cc2oc(-c3ccc(N(C)C)cc3)c(O)c(=O)c2cc1C` [CMS-117, 2-(4-(dimethylamino)phenyl)-3-hydroxy-6,7-dimethyl-4H-chromen-4-one], the EC50 in assay [1] (setting [3]) was 20 nM. Besides, the Emax in assay [1] (Mus musculus) is 81%.
As to `O=c1cc(-c2ccccc2)oc2cc(O)c(O)c(O)c12` [Baicalein, 5,6,7-trihydroxyflavone, reference compound], in assay [1] (20 μM IAA), the “HT22 Cell IAA assay (maximal % protection)” value was found to be 85%. Further, in assay [1] (HT22 cells), the “increase of survival over the neuroprotective concentration range” value is reported as “greater than 80%” and the neuroprotective concentration range fell in the range of 2.5 to 10 µM. In addition, in assay [1] (setting [4]), the EC50 worked out at 1500 nM. Further, in assay [2] (E14 mouse cortical neurons, 10 μM glutamate 10 min, 0.2-5 μM, MTT 24 hr), the “cells rescued in excitotoxicity assay” value is reported as “about 35%”. In addition, the % protection against glutamate excitotoxicity at 0.1 µM in assay [2] worked out at 0%.
On to `O=c1c(O)c(-c2ccc(N3CCCC3)c(O)c2)oc2c1ccc1ccccc12` [CMS-140, 3-hydroxy-2-(3-hydroxy-4-(pyrrolidin-1-yl)phenyl)-4H-benzo[h]chromen-4-one], for which the EC50 in assay [1] (setting [3]) came to 5 nM. Moreover, the Emax in assay [1] (Mus musculus) turned out to be 89%. Besides, the “fold improvement of neuroprotective activity/potency relative to Fisetin” value in assay [1] (in vitro ischemia, HT22/IAA) is on record as “up to 600 fold”.
For the molecule `COc1ccc(/C=C/C(=O)c2cc(C)c(C)cc2O)cc1OCc1ccccc1` [CMS-086, (E)-3-(3-(benzyloxy)-4-methoxyphenyl)-1-(2-hydroxy-4,5-dimethylphenyl)prop-2-en-1-one], the “EC50 in vitro ischemia (μM)” value in assay [1] (HT22 cells, 20 μM IAA for 2 hr, viability after 24 hr by MTT) is reported as “no”.
As to `O=c1c(O)c(-c2ccc(O)c(O)c2)oc2c1ccc1ccccc12` [CMS-040, 2-(3,4-dihydroxyphenyl)-3-hydroxy-4H-benzo[h]chromen-4-one], the EC50 in assay [1] (setting [3]) turned out to be 90 nM. Besides, in assay [1] (Mus musculus, 20 μM IAA), the percent protection from IAA-induced cell death at 0.1 µM is 67%. The “fold enhancement of neuroprotective activity relative to CMS-04P” value in assay [1] (in vitro ischemia, HT22/IAA) is approximately 5.5 fold. Also, the % protection against glutamate excitotoxicity at 0.1 µM in assay [2] turned out to be 86%.
